This experiment relates to S. aureus DSM 20231. In words: Bliss interaction score (quartile over a dose matrix) (fitness difference); higher = more antagonism (negative = synergy). A digest of the protocol:
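The Bliss score takes observed fitness and subtracts the expected fitness, calculated as a product of single-drug fitness values. Those single-drug values were inferred from the combination data. Fitness is OD595 at entry into stationary phase divided by the plate's robust no-drug mean, capped at 1, and the score is summarised by quartiles across technical, biological and donor/recipient replicates.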
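Further: first quartile when negative (synergy) and third quartile when positive (antagonism).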

Turning to `CCN(CC)CCOc1ccc(C(=C(Cl)c2ccccc2)c2ccccc2)cc1` [Clomiphene] + CCC(C)C1C(=O)NC(=C)C(=O)NC(C(=O)NC(CSCC(C(=O)N1)NC(=O)/C(=C/C)/NC(=O)C(C(C)CC)N)C(=O)NC2C(SCC(NC(=O)CNC(=O)C3CCCN3C2=O)C(=O)NC(CCCCN)C(=O)NC4C(SCC(NC(=O)CNC(=O)C(NC(=O)C(NC(=O)C(NC(=O)CNC4=O)C)CC(C)C)CCSC)C(=O)NC(CC(=O)N)C(=O)NC(CCSC)C(=O)NC(CCCCN)C(=O)NC5C(SCC6C(=O)NC(C(=O)NC(CSC(C(C(=O)N6)NC(=O)C(NC5=O)C)C)C(=O)NC(CO)C(=O)NC(C(C)CC)C(=O)NC(CC7=CN=CN7)C(=O)NC(C(C)C)C(=O)NC(=C)C(=O)NC(CCCCN)C(=O)O)CC8=CN=CN8)C)C)C)CC(C)C [Nisin], the Bliss interaction score (main component drawn) was -0.384. As to `CC(=O)O[C@H]1C[C@@]2(C)[C@@H](C[C@@H](O)[C@H]3[C@@]4(C)CC[C@@H](O)[C@@H](C)[C@@H]4CC[C@@]32C)/C1=C(\CCC=C(C)C)C(=O)O` [Fusidic acid] + CC(C)(O)c1ccccc1CC[C@@H](SCC1(CC(=O)O)CC1)c1cccc(/C=C/c2ccc3ccc(Cl)cc3n2)c1 [Montelukast], the Bliss interaction score is -0.241. In the case of `CCc1oc2ccccc2c1C(=O)c1cc(Br)c(O)c(Br)c1` [Benzbromarone] + N[C@@H]1CONC1=O [CycloserineD], the Bliss interaction score is -0.109. Take `CCN(CC)CCOc1ccc(C(=C(Cl)c2ccccc2)c2ccccc2)cc1` [Clomiphene] + CN[C@@H]1[C@H](O[C@H]2[C@H](O[C@H]3[C@H](O)[C@@H](O)[C@H](N=C(N)N)[C@@H](O)[C@@H]3N=C(N)N)O[C@@H](C)[C@]2(O)C=O)O[C@@H](CO)[C@H](O)[C@H]1O [Streptomycin]: the Bliss interaction score was 0.238. Still for that read-out and setting: to `CCc1oc2ccccc2c1C(=O)c1cc(Br)c(O)c(Br)c1` [Benzbromarone] + C1=CC(=CC(=C1)Cl)NN=C(C#N)C#N [CCCP] belongs -0.103; to `CCC[C@@H]1C[C@@H](C(=O)N[C@@H]([C@H]2O[C@H](SC)[C@H](O)[C@@H](O)[C@H]2O)[C@@H](C)O)N(C)C1` [Lincomycin] + CC(C)(O)c1ccccc1CC[C@@H](SCC1(CC(=O)O)CC1)c1cccc(/C=C/c2ccc3ccc(Cl)cc3n2)c1 [Montelukast], -0.268. Same read-out and setting: then `CCN(CC)CCOc1ccc(C(=C(Cl)c2ccccc2)c2ccccc2)cc1` [Clomiphene] + N[C@@H]1CONC1=O [CycloserineD], with -0.175; and `O=C(N[C@H](CO)[C@H](O)c1ccc([N+](=O)[O-])cc1)C(Cl)Cl` [Chloramphenicol] + CC(=O)Oc1cccc2c1C(=O)c1c(OC(C)=O)cc(C(=O)O)cc1C2=O [Diacerein], with -0.41. The same measure, in the same setting: to `CC[C@H]1OC(=O)[C@H](C)[C@@H](O[C@H]2C[C@@](C)(OC)[C@@H](O)[C@H](C)O2)[C@H](C)[C@@H](O[C@@H]2O[C@H](C)C[C@H](N(C)C)[C@H]2O)[C@](C)(OC)C[C@@H](C)C(=O)[C@H](C)[C@@H](O)[C@]1(C)O` [Clarithromycin] + Cc1c(Cl)cccc1Nc1ccccc1C(=O)O [Tolfenamic] belongs -0.245. For `CCc1oc2ccccc2c1C(=O)c1cc(Br)c(O)c(Br)c1` [Benzbromarone] + CC(C1CCC(C(O1)OC2C(CC(C(C2O)OC3C(C(C(CO3)(C)O)NC)O)N)N)N)NC [Gentamicin], for the setting “main component drawn”, the Bliss interaction score worked out at 0.189.

With `CC[C@H]1OC(=O)[C@H](C)[C@@H](O[C@H]2C[C@@](C)(OC)[C@@H](O)[C@H](C)O2)[C@H](C)[C@@H](O[C@@H]2O[C@H](C)C[C@H](N(C)C)[C@H]2O)[C@](C)(OC)C[C@@H](C)C(=O)[C@H](C)[C@@H](O)[C@]1(C)O` [Clarithromycin] + CN1CCC[C@H]1c1cccnc1 [Nicotine], the Bliss interaction score is -0.223.

On to `N[C@@H]1CONC1=O` [CycloserineD] + Cc1c(Cl)cccc1Nc1ccccc1C(=O)O [Tolfenamic], for which the Bliss interaction score was -0.218. Same read-out and setting: then `CCC[C@@H]1C[C@@H](C(=O)N[C@@H]([C@H]2O[C@H](SC)[C@H](O)[C@@H](O)[C@H]2O)[C@H](C)Cl)N(C)C1` [Clindamycin] + CC(C)Cc1ccc(C(C)C(=O)O)cc1 [Ibuprofen], with -0.231.

As for `N[C@@H]1CONC1=O` [CycloserineD] + O=C(O)c1cc(-c2ccc(F)cc2F)ccc1O [Diflunisal], the Bliss interaction score was -0.151. The same measure, in the same setting: then `CC[C@H]1OC(=O)[C@H](C)[C@@H](O[C@H]2C[C@@](C)(OC)[C@@H](O)[C@H](C)O2)[C@H](C)[C@@H](O[C@@H]2O[C@H](C)C[C@H](N(C)C)[C@H]2O)[C@](C)(OC)C[C@@H](C)C(=O)[C@H](C)[C@@H](O)[C@]1(C)O` [Clarithromycin] + CC(C)Cc1ccc(C(C)C(=O)O)cc1 [Ibuprofen], with -0.171. On to `CCC[C@@H]1C[C@@H](C(=O)N[C@@H]([C@H]2O[C@H](SC)[C@H](O)[C@@H](O)[C@H]2O)[C@H](C)Cl)N(C)C1` [Clindamycin] + Nc1ccc(O)c(C(=O)O)c1 [Mesalamine], for which the Bliss interaction score is -0.165.

With `CCN(CC)CCOc1ccc(C(=C(Cl)c2ccccc2)c2ccccc2)cc1` [Clomiphene] + O=C(O[C@@H]1Cc2c(O)cc(O)cc2O[C@@H]1c1cc(O)c(O)c(O)c1)c1cc(O)c(O)c(O)c1 [EGCG], the Bliss interaction score came to 0.241. Turning to `CC(=O)O[C@H]1C[C@@]2(C)[C@@H](C[C@@H](O)[C@H]3[C@@]4(C)CC[C@@H](O)[C@@H](C)[C@@H]4CC[C@@]32C)/C1=C(\CCC=C(C)C)C(=O)O` [Fusidic acid] + C[C@H]1C[C@@H]2[C@H]([C@@H](O)C[C@@]3(C)[C@H]2CC[C@]3(O)C(=O)CO)[C@@]2(C)C=CC(=O)C=C12 [Methylprednisolone], the Bliss interaction score was -0.127. Still for that read-out and setting: to `CCC[C@@H]1C[C@@H](C(=O)N[C@@H]([C@H]2O[C@H](SC)[C@H](O)[C@@H](O)[C@H]2O)[C@@H](C)O)N(C)C1` [Lincomycin] + Cc1cccc(CN2CCN(C(c3ccccc3)c3ccc(Cl)cc3)CC2)c1 [Meclizine] belongs 0.278; to `CC[C@H]1OC(=O)[C@H](C)[C@@H](O[C@H]2C[C@@](C)(OC)[C@@H](O)[C@H](C)O2)[C@H](C)[C@@H](O[C@@H]2O[C@H](C)C[C@H](N(C)C)[C@H]2O)[C@](C)(OC)C[C@@H](C)C(=O)[C@H](C)[C@@H](O)[C@]1(C)O` [Clarithromycin] + C[C@H]1C[C@@H]2[C@H]([C@@H](O)C[C@@]3(C)[C@H]2CC[C@]3(O)C(=O)CO)[C@@]2(C)C=CC(=O)C=C12 [Methylprednisolone], -0.275; to `CCC[C@@H]1C[C@@H](C(=O)N[C@@H]([C@H]2O[C@H](SC)[C@H](O)[C@@H](O)[C@H]2O)[C@H](C)Cl)N(C)C1` [Clindamycin] + Cc1c(Cl)cccc1Nc1ccccc1C(=O)O [Tolfenamic], -0.169. On to `CCc1oc2ccccc2c1C(=O)c1cc(Br)c(O)c(Br)c1` [Benzbromarone] + O=C(O[C@@H]1Cc2c(O)cc(O)cc2O[C@@H]1c1cc(O)c(O)c(O)c1)c1cc(O)c(O)c(O)c1 [EGCG], for which the Bliss interaction score was -0.139. For `CCC[C@@H]1C[C@@H](C(=O)N[C@@H]([C@H]2O[C@H](SC)[C@H](O)[C@@H](O)[C@H]2O)[C@@H](C)O)N(C)C1` [Lincomycin] + Cc1c(Cl)cccc1Nc1ccccc1C(=O)O [Tolfenamic], the Bliss interaction score was -0.244. Same read-out and setting: then `CCN(CC)CCOc1ccc(C(=C(Cl)c2ccccc2)c2ccccc2)cc1` [Clomiphene] + COc1cc(Cc2cnc(N)nc2N)cc(OC)c1OC [Trimethoprim], with 0.216; and `O=C(N[C@H](CO)[C@H](O)c1ccc([N+](=O)[O-])cc1)C(Cl)Cl` [Chloramphenicol] + C[C@H]1C[C@@H]2[C@H]([C@@H](O)C[C@@]3(C)[C@H]2CC[C@]3(O)C(=O)CO)[C@@]2(C)C=CC(=O)C=C12 [Methylprednisolone], with -0.204; and `O=C1CN(/N=C/c2ccc([N+](=O)[O-])o2)C(=O)N1` [Nitrofurantoin] + CCCSc1nc(N[C@@H]2C[C@H]2c2ccc(F)c(F)c2)c2nnn([C@@H]3C[C@H](OCCO)[C@@H](O)[C@H]3O)c2n1 [Ticagrelor], with -0.277.

The record behind these values is the supplement of paper PMC10627819.
